The structures appear in SMILES notation. Inconclusive results are not listed. The source made the active and inactive calls.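 The calls were made as follows: active = compound lowering the normal-ribosome reporter at least twice as much as the humanized-ribosome reporter, growth loss under a set limit; inconclusive = no clear call, values can overlap the other calls; inactive = the rest.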

The assay has as its system E. coli wild-type GFP strain growth, fluorescence, 24 h. Briefly: wild-type E. coli growth inhibition versus h34 humanized strain – h34 mutant RFP, wild-type GFP, cherry-pick, dose response (AID 977624).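 Also: wild-type GFP strain co-cultured with humanized h34 ribosome RFP strain in same well.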
One may read the AC50 as the midpoint of the concentration-response curve, whichever way the signal moves. As to `COc1cc(NC(=O)c2ccc([N+](=O)[O-])o2)ccc1NC(=O)c1ccco1`, the AC50 was > 100 µM (inactive).

Regarding `CC1CCN(CC(O)COCCC23CC4CC(CC(C4)C2)C3)CC1` (centres undefined), the AC50 was > 100 µM (inactive).

`CC(=O)c1c(C)[nH]c(C(=O)Nc2nc(C)cs2)c1C`: the AC50 is > 100 µM (inactive).

As for `O=C(COC(=O)c1n[nH]c2ccccc12)Nc1cccc(S(=O)(=O)N2CCOCC2)c1`, the AC50 was > 100 µM (inactive).

With `Fc1cccc(Cl)c1CSc1ccc(-c2ccco2)nn1`, the AC50 was > 100 µM (inactive).

As for `Cc1oc(-c2ccc(-c3ccccc3)cc2)nc1CN(C)C1CCOC1` (centres undefined), the AC50 is > 100 µM (inactive).

With `CC(=O)Oc1ccc(N(C(C)=O)S(=O)(=O)c2ccc(C)cc2)c2ccccc12`, the AC50 was > 100 µM (inactive).

In the case of `Cc1cccc(C)c1NC(=O)C1(C)CSCC(=O)N1CCOc1ccccc1` (centres undefined), the AC50 is > 100 µM (inactive).

For the compound `COc1ccc(CCNc2nc(-c3ccncc3)cs2)cc1OC`, the AC50 was > 100 µM (inactive).

Consider `COc1ccc(Nc2nc(N)c([N+](=O)[O-])c(N3CCCC3)n2)cc1`, for which the AC50 is > 100 µM (inactive).

Take `Clc1ccc(-c2nc3ccc(Br)cn3c2Cc2ccsc2)cc1`: the AC50 was > 100 µM (inactive).

`CCOC(=O)c1c(CS(=O)(=O)c2ccccc2)n(C)c2cc(Br)c(O)cc12`: the AC50 was > 100 µM (inactive).

As for `COc1cc(NC(=O)CSCc2ccc(Cl)cc2Cl)c(C(=O)O)cc1OC`, the AC50 is > 100 µM (inactive).

Take `Cc1ccc(NC(=O)CCCSc2ccccc2)cc1S(=O)(=O)N1CCOCC1`: the AC50 is > 100 µM (inactive).

Consider `CN1CCN(C(=O)C[C@H]2CC[C@@H]3[C@H](COC[C@@H](O)CN3C(=O)Nc3ccc(Cl)cc3)O2)CC1`, for which the AC50 was > 100 µM (inactive).

As for `COC(=O)COc1ccc(Cl)cc1C1Nc2ccccc2C(=O)N1c1ccc(OC)cc1` (centres undefined), the AC50 was > 100 µM (inactive).

For `O=S(=O)(NC1c2cccc3cccc(c23)C1Sc1ncccn1)c1ccccc1` (centres undefined), the AC50 was > 100 µM (inactive).

Turning to `CCOc1ccc(S(=O)(=O)Nc2ccc(S(=O)(=O)N3CCCC3)cc2)cc1`, the AC50 is > 100 µM (inactive).

In the case of `Cc1ccc2nc(SCC(=O)Nc3c(F)cccc3F)[nH]c2c1`, the AC50 was > 100 µM (inactive).

Consider `O=C(O)c1ccccc1NC(=O)C(c1ccccc1)c1ccccc1`, for which the AC50 was > 100 µM (inactive).

Take `Cc1ccc(NC(=O)CN(C)S(=O)(=O)c2cccc3cccnc23)cc1F`: the AC50 was > 100 µM (inactive).

`COc1ccc(C(CC(=O)c2ccc(O)cc2)S(=O)(=O)c2ccc(C)cc2)cc1` (centres undefined): the AC50 is > 100 µM (inactive).

In the case of `Cc1cccc(-c2ccc([C@H]3[C@@H](CO)N4CCCCN(S(=O)(=O)c5ccccc5C)C[C@H]34)cc2)c1`, the AC50 is > 52 µM (inactive).

Regarding `Cc1ccc(S(=O)(=O)NCc2c(-c3ccccc3)noc2C)cc1`, the AC50 was > 100 µM (inactive).

`COc1ccccc1-c1ccc(SCc2cccc(F)c2)nn1`: the AC50 was > 100 µM (inactive).

Turning to `CCc1nnc(NS(=O)(=O)c2ccc(NC(=O)c3cccc4ccccc34)cc2)s1`, the AC50 was > 100 µM (inactive).

On to `CCC(=O)c1ccc(OCC(=O)Nc2nc(C)cs2)cc1`, for which the AC50 was > 100 µM (inactive).

On to `CC(C)(CC(=O)O)CC(=O)NCc1c(Cl)cccc1Sc1ccc(Cl)cc1`, for which the AC50 is > 100 µM (inactive).

`COc1ccc2nc(SCC(=O)Nc3ccccc3)[nH]c2c1`: the AC50 was > 100 µM (inactive).

As to `CCN(CC)S(=O)(=O)c1ccc(O)c(C(=O)OCC(=O)NC23CC4CC(CC(C4)C2)C3)c1`, the AC50 was > 100 µM (inactive).

With `O=C(CCCn1c(=S)[nH]c2ccsc2c1=O)Nc1ccc2c(c1)OCCO2`, the AC50 is > 100 µM (inactive).

Turning to `CCCCC(=O)N1CCN(c2nc3ccc(Br)cc3s2)CC1`, the AC50 is > 100 µM (inactive).

Consider `O=C(CSc1nc(C2CCCCC2)nc2ccccc12)N1CCCC1`, for which the AC50 is > 100 µM (inactive).

Consider `CC1(C(=O)NS(=O)(=O)c2cccc(Cl)c2)CCN1C(=O)C1(c2ccc(Cl)cc2)CCC1` (centres undefined), for which the AC50 was > 100 µM (inactive).

In the case of `CCC(=O)Nc1sc(Cc2ccc3c(c2)OCO3)c(C)c1C(N)=O`, the AC50 was > 100 µM (inactive).

In the case of `CCOC(=O)c1[nH]c2ccccc2c1NC(=O)c1ccc(Br)o1`, the AC50 was > 100 µM (inactive).

Turning to `Cc1ccccc1-n1nnnc1SCCCC(=O)c1ccc(F)cc1`, the AC50 was > 100 µM (inactive).

In the case of `O=S(=O)(c1ccccc1)N1C[C@H]2[C@@H](c3ccccc31)[C@@H](CO)N2Cc1ccccc1`, the AC50 was > 100 µM (inactive).

For `CS(=O)(=O)c1cccc(C(=O)Nc2cccc(-c3nc4ccccc4[nH]3)c2)c1`, the AC50 is > 100 µM (inactive).

In the case of `N#Cc1nc(Cc2ccccc2)oc1N1CCCC1`, the AC50 is > 100 µM (inactive).

`COc1ccc(NC(=O)CN(c2ccccc2)S(=O)(=O)c2ccccc2)c(OC)c1`: the AC50 was > 100 µM (inactive).

`COC(=O)COc1ccc(S(=O)(=O)N2CCc3ccccc3C2)cc1C`: the AC50 is > 100 µM (inactive).

Turning to `COc1ccc(-c2nnn(CC(=O)N3CCN(c4ccccc4OC)CC3)n2)cc1OC`, the AC50 was > 100 µM (inactive).

As for `O=C(Nc1cccc(-c2cn3ccccc3n2)c1)c1ccccc1`, the AC50 is > 100 µM (inactive).

On to `CCN(CC)CCN(C(=O)C1CCCCC1)c1nc2cc3c(cc2s1)OCO3`, for which the AC50 is > 100 µM (inactive).

`COc1ccc2nc(SCC(=O)Nc3ccccc3OC)[nH]c2c1`: the AC50 is > 100 µM (inactive).

Regarding `O=C(c1ccc(-n2cccn2)cc1)N1CCc2ccccc2C1`, the AC50 was > 100 µM (inactive).

In the case of `CCc1cc2cc(OC)ccc2nc1SCC(=O)Nc1cc(OC)c(OC)cc1C(=O)O`, the AC50 is > 100 µM (inactive).

Take `Cc1ccccc1OCC(O)Cn1c(NCc2ccco2)nc2c1c(=O)n(C)c(=O)n2C` (centres undefined): the AC50 is > 100 µM (inactive).

For the compound `Fc1cccc(Cc2c(-c3ccco3)nc3c4ccccc4ccn23)c1`, the AC50 was > 100 µM (inactive).

On to `Cc1ccsc1C(=O)OCC(=O)N1CCc2ccccc2C1`, for which the AC50 is > 100 µM (inactive).

Regarding `CC1(C(=O)NS(=O)(=O)c2ccc3c(c2)CCO3)CCN1C(=O)c1ccccc1CCc1ccccc1` (centres undefined), the AC50 is > 100 µM (inactive).

Take `COc1ccc(-c2noc(=O)n2Cc2ccccc2Cl)cc1`: the AC50 is > 100 µM (inactive).

Consider `CSc1ccccc1NC(=O)c1ccccc1N(Cc1ccccc1)S(C)(=O)=O`, for which the AC50 was > 100 µM (inactive).

For `COc1ccccc1Cn1c(=S)[nH]c2ccc(F)cc2c1=O`, the AC50 is > 100 µM (inactive).

As for `O=C(CCc1ccccc1)Nc1sc2c(c1C(=O)O)CCCC2`, the AC50 is > 100 µM (inactive).

With `CC(=O)Nc1ccc(Nc2nc(C)c([N+](=O)[O-])c(N(C)c3ccccc3)n2)cc1`, the AC50 was > 100 µM (inactive).

In the case of `Cc1cc(C(=O)COC(=O)c2ccc(Br)o2)c(C)n1C`, the AC50 was > 100 µM (inactive).

For the compound `O=C(CSc1nc2scc(-c3ccccc3)c2c(=O)[nH]1)N1CCCCC1`, the AC50 is > 100 µM (inactive).

As for `COc1ccc(-c2ccc3ccccc3n2)cc1OC`, the AC50 was > 100 µM (inactive).

Consider `CN(c1ccccc1)S(=O)(=O)c1cccc(C(=O)OCC(=O)NCc2ccco2)c1`, for which the AC50 is > 100 µM (inactive).

Turning to `COc1ccc(-c2csc(NC(=O)CC(NC(C)=O)c3ccccc3)n2)cc1OC` (centres undefined), the AC50 is > 100 µM (inactive).

For the compound `Cc1c(C(=O)NCCSCc2cccc(C(F)(F)F)c2)cnn1-c1ccc(F)cc1`, the AC50 is > 100 µM (inactive).

On to `O=S(=O)(c1ccccc1)N1C[C@@H]2[C@H](c3ccccc31)[C@H](CO)N2Cc1ccccc1`, for which the AC50 was > 100 µM (inactive).

Take `O=[N+]([O-])c1cccnc1N1CCN(c2ccc(F)cc2)CC1`: the AC50 is > 100 µM (inactive).

Regarding `O=C(Nc1ccc2nc3n(c(=O)c2c1)CCCCC3)c1c(F)ccc([N+](=O)[O-])c1F`, the AC50 is > 100 µM (inactive).

For `COc1cc(SC)ccc1C(=O)N1CCN(c2ccccc2F)CC1`, the AC50 is > 100 µM (inactive).

Consider `CCN(C(=O)COC(=O)c1cn(-c2ccccc2)nc1-c1ccccc1)C1CCS(=O)(=O)C1` (centres undefined), for which the AC50 is > 100 µM (inactive).

Turning to `CC1(C(=O)NS(=O)(=O)c2cccc(C#N)c2)CCN1C(=O)C1(c2ccc(Cl)cc2)CCC1` (centres undefined), the AC50 was > 100 µM (inactive).

On to `Cc1ccc(S(=O)(=O)Nc2ccccc2CNc2cccc(C)n2)cc1`, for which the AC50 was > 100 µM (inactive).

On to `Cc1ccc2oc(C(=O)N(CCO)Cc3ccccc3)c(C)c2c1`, for which the AC50 was > 100 µM (inactive).

For `CC(OC(=O)CCc1nc2ccccc2c(=O)[nH]1)C(=O)c1ccc(Br)cc1` (centres undefined), the AC50 is > 100 µM (inactive).

As for `O=C(O)c1ccc(-c2noc(-c3cccc(Cl)c3)n2)cc1`, the AC50 is > 100 µM (inactive).

In the case of `O=C(CN1CCc2ccccc2C1)Nc1ccc(F)cc1F`, the AC50 is > 100 µM (inactive).

Take `COc1ccc(C(=O)Cn2c(C)nc([N+](=O)[O-])c2Br)cc1`: the AC50 was > 100 µM (inactive).

Consider `C=CCn1c(CCSCc2ccc(OC)c(C)c2)n[nH]c1=S`, for which the AC50 was > 100 µM (inactive).

With `O=C(NCc1ccco1)c1ccc(COc2cccc3ccccc23)cc1`, the AC50 was > 100 µM (inactive).

In the case of `CCOc1ccc(C(C)=O)cc1CN1C(=O)NC2(CCCCCCC2)C1=O`, the AC50 was > 100 µM (inactive).

Take `O=C(O)CC1(CC(=O)NCc2ccc(-c3cccs3)cc2)CCCCC1`: the AC50 was > 100 µM (inactive).

Take `CSc1cccc(NC(=O)CSc2nc3ccccc3o2)c1`: the AC50 is > 100 µM (inactive).

As for `COc1ccc(NC(=O)Nc2cccc3c2O[C@@H](CN(C)S(=O)(=O)c2ccc(Cl)cc2)[C@H](C)CN([C@H](C)CO)C3=O)cc1`, the AC50 was > 100 µM (inactive).

With `O=C(Cn1c2[n+](c3ccc(C(F)(F)F)cc31)CCCCC2)c1ccc2c(c1)OCCO2`, the AC50 is > 100 µM (inactive).

As to `N#Cc1ccsc1NC(=O)CSc1nnnn1-c1ccc(O)cc1`, the AC50 was > 100 µM (inactive).

As to `COC(=O)C(Cc1csc2ccc(Cl)cc12)NC(=O)c1ccc(Cl)cc1` (centres undefined), the AC50 is > 100 µM (inactive).

These data come from PubChem BioAssay AID977624 (Broad Institute, 2014).
